Experimental data taken from patent US20230021483A1, “[…] […] METHOD AND CLASSIFICATION OF PHARMACEUTICAL COMPONENTS BY USING TRANSCRIPTOMES” (National Institutes of Biomedical Innovation, Health and …, priority 2016, published 2023).

What was measured:
[1] = test system: adjuvant-associated biological themes in LV, SP, LN
Method in brief: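 Per-mouse whole-organ transcriptomes; genes with eij/ei(c)>2.0 tested for theme enrichment via TargetMine (GO, KEGG, Reactome, others), Fisher's exact test, Holm-Bonferroni correction. Themes shared by all three mice kept at p<0.05, using the smallest p. Score per adjuvant-associated term = Σ−log(p) of matching themes.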

[2] = test system: liver (LV); test: Whole organ transcriptome (GeneChip microarray) of liver 6 h after adjuvant administration: sDEGs, hierarchical clustering; format: in vivo, C57BL/6 mice; details: i.d. administration, liver, 6 h after adjuvant

Monophosphoryl lipid A [MPLA] was tested, and the “IFN alpha, GO annotation line 1 of 5” value ([1]; LV, ID) was 0, the “IFN alpha, GO annotation line 2 of 5” value ([1]; LV, ID) was 0 and the “IFN alpha: cellular response to interferon-alpha” value ([1]; LV, ID) was 0. For the same substance, the “IFN alpha: positive regulation of interferon-alpha production” value ([1]; LV, ID) was 0, the “IFN alpha: regulation of interferon-alpha production” value ([1]; LV, ID) was 0 and the “IFN beta: cellular response to interferon-beta” value ([1]; LV, ID) was 0. The “IFN beta: interferon-beta production” value ([1]; LV, ID) was 0, the “IFN beta: positive regulation of interferon-beta production” value ([1]; LV, ID) was 0 and the “IFN beta: regulation of interferon-beta production” value ([1]; LV, ID) was 0. For the same substance, the “IFN beta: response to interferon-beta” value ([1]; LV, ID) was 0, the “IFN gamma: cellular response to interferon-gamma” value ([1]; LV, ID) was 0 and the “IFN gamma: interferon-gamma production” value ([1]; LV, ID) was 0. The “IFN gamma: regulation of interferon-gamma production” value ([1]; LV, ID) was 0, the “IFN gamma: response to interferon-gamma” value ([1]; LV, ID) was 0 and the “NF-kappa B signaling pathway, GO annotation line 1 of 4” value ([1]; LV, ID) was 0. For the same substance, the “NF-kappa B signaling pathway, GO annotation line 2 of 4” value ([1]; LV, ID) was 0, the “NF-kappa B signaling pathway, GO annotation line 3 of 4” value ([1]; LV, ID) was 0 and the “NF-kappa B signaling pathway, GO annotation line 4 of 4” value ([1]; LV, ID) was 0. The TNF signaling pathway ([1]; LV, ID) was 3.93, the “adaptive immune response, GO annotation line 1 of 5” value ([1]; LV, ID) was 0 and the “adaptive immune response, GO annotation line 2 of 5” value ([1]; LV, ID) was 0. The “adaptive immune response, GO annotation line 3 of 5” value ([1]; LV, ID) was 0, the “adaptive immune response, GO annotation line 4 of 5” value ([1]; LV, ID) was 0 and the “adaptive immune response, GO annotation line 5 of 5” value ([1]; LV, ID) was 0. For the same substance, the “apoptosis, GO annotation line 1 of 8” value ([1]; LV, ID) was 0, the “apoptosis, GO annotation line 2 of 8” value ([1]; LV, ID) was 0 and the “apoptosis, GO annotation line 3 of 8” value ([1]; LV, ID) was 0. The “apoptosis, GO annotation line 4 of 8” value ([1]; LV, ID) was 0, the “apoptosis, GO annotation line 5 of 8” value ([1]; LV, ID) was 0 and the “apoptosis, GO annotation line 6 of 8” value ([1]; LV, ID) was 0. The “apoptosis, GO annotation line 7 of 8” value ([1]; LV, ID) was 0, the “apoptosis, GO annotation line 8 of 8” value ([1]; LV, ID) was 0 and the “cell death, GO annotation line 1 of 9” value ([1]; LV, ID) was 0. The “cell death, GO annotation line 2 of 9” value ([1]; LV, ID) was 0, the “cell death, GO annotation line 3 of 9” value ([1]; LV, ID) was 0 and the “cell death, GO annotation line 4 of 9” value ([1]; LV, ID) was 0. For the same substance, the “cell death, GO annotation line 5 of 9” value ([1]; LV, ID) was 0, the “cell death, GO annotation line 6 of 9” value ([1]; LV, ID) was 0 and the “cell death, GO annotation line 7 of 9” value ([1]; LV, ID) was 0. For the same substance, the “cell death, GO annotation line 8 of 9” value ([1]; LV, ID) was 0, the “cell death, GO annotation line 9 of 9” value ([1]; LV, ID) was 0 and the “chemokine, GO annotation line 1 of 4” value ([1]; LV, ID) was 0. For the same substance, the “chemokine, GO annotation line 2 of 4” value ([1]; LV, ID) was 0, the “chemokine, GO annotation line 3 of 4” value ([1]; LV, ID) was 0 and the “chemokine, GO annotation line 4 of 4” value ([1]; LV, ID) was 0. For the same substance, the “chemotaxis, GO annotation line 1 of 11” value ([1]; LV, ID) was 3.38, the “chemotaxis, GO annotation line 2 of 11” value ([1]; LV, ID) was 0 and the “chemotaxis, GO annotation line 3 of 11” value ([1]; LV, ID) was 0. For the same substance, the “chemotaxis, GO annotation line 4 of 11” value ([1]; LV, ID) was 0, the “chemotaxis, GO annotation line 5 of 11” value ([1]; LV, ID) was 0 and the “chemotaxis, GO annotation line 6 of 11” value ([1]; LV, ID) was 0. The “chemotaxis, GO annotation line 7 of 11” value ([1]; LV, ID) was 0, the “chemotaxis, GO annotation line 8 of 11” value ([1]; LV, ID) was 0 and the “chemotaxis, GO annotation line 9 of 11” value ([1]; LV, ID) was 0. The “chemotaxis, GO annotation line 10 of 11” value ([1]; LV, ID) was 0, the “chemotaxis, GO annotation line 11 of 11” value ([1]; LV, ID) was 0 and the “cytokine, GO annotation line 1 of 17” value ([1]; LV, ID) was 0. For the same substance, the “cytokine, GO annotation line 2 of 17” value ([1]; LV, ID) was 0, the “cytokine, GO annotation line 3 of 17” value ([1]; LV, ID) was 0 and the “cytokine, GO annotation line 4 of 17” value ([1]; LV, ID) was 0. The “cytokine, GO annotation line 5 of 17” value ([1]; LV, ID) was 0, the “cytokine, GO annotation line 6 of 17” value ([1]; LV, ID) was 0 and the “cytokine, GO annotation line 7 of 17” value ([1]; LV, ID) was 0. The “cytokine, GO annotation line 8 of 17” value ([1]; LV, ID) was 0, the “cytokine, GO annotation line 9 of 17” value ([1]; LV, ID) was 0 and the “cytokine, GO annotation line 10 of 17” value ([1]; LV, ID) was 0. For the same substance, the “cytokine, GO annotation line 11 of 17” value ([1]; LV, ID) was 0, the “cytokine, GO annotation line 12 of 17” value ([1]; LV, ID) was 0 and the “cytokine, GO annotation line 13 of 17” value ([1]; LV, ID) was 0. The “cytokine, GO annotation line 14 of 17” value ([1]; LV, ID) was 0, the “cytokine, GO annotation line 15 of 17” value ([1]; LV, ID) was 0 and the “cytokine, GO annotation line 16 of 17” value ([1]; LV, ID) was 0. For the same substance, the “cytokine, GO annotation line 17 of 17” value ([1]; LV, ID) was 0, the “defense response, GO annotation line 1 of 11” value ([1]; LV, ID) was 0 and the “defense response, GO annotation line 2 of 11” value ([1]; LV, ID) was 0. For the same substance, the “defense response, GO annotation line 3 of 11” value ([1]; LV, ID) was 0, the “defense response, GO annotation line 4 of 11” value ([1]; LV, ID) was 0 and the “defense response, GO annotation line 5 of 11” value ([1]; LV, ID) was 0. The “defense response, GO annotation line 6 of 11” value ([1]; LV, ID) was 0, the “defense response, GO annotation line 7 of 11” value ([1]; LV, ID) was 0 and the “defense response, GO annotation line 8 of 11” value ([1]; LV, ID) was 0. For the same substance, the “defense response, GO annotation line 9 of 11” value ([1]; LV, ID) was 0, the “defense response, GO annotation line 10 of 11” value ([1]; LV, ID) was 0 and the “defense response, GO annotation line 11 of 11” value ([1]; LV, ID) was 0. The “immune response, GO annotation line 1 of 8” value ([1]; LV, ID) was 0, the “immune response, GO annotation line 2 of 8” value ([1]; LV, ID) was 0 and the “immune response, GO annotation line 3 of 8” value ([1]; LV, ID) was 0. The “immune response, GO annotation line 4 of 8” value ([1]; LV, ID) was 0, the “immune response, GO annotation line 5 of 8” value ([1]; LV, ID) was 0 and the “immune response, GO annotation line 6 of 8” value ([1]; LV, ID) was 0. For the same substance, the “immune response, GO annotation line 7 of 8” value ([1]; LV, ID) was 0, the “immune response, GO annotation line 8 of 8” value ([1]; LV, ID) was 0 and the “inflammatory response, GO annotation line 1 of 5” value ([1]; LV, ID) was 0. For the same substance, the “inflammatory response, GO annotation line 2 of 5” value ([1]; LV, ID) was 0, the “inflammatory response, GO annotation line 3 of 5” value ([1]; LV, ID) was 0 and the “inflammatory response, GO annotation line 4 of 5” value ([1]; LV, ID) was 0. For the same substance, the “inflammatory response, GO annotation line 5 of 5” value ([1]; LV, ID) was 0, the “innate immune response, GO annotation line 1 of 6” value ([1]; LV, ID) was 0 and the “innate immune response, GO annotation line 2 of 6” value ([1]; LV, ID) was 0. For the same substance, the “innate immune response, GO annotation line 3 of 6” value ([1]; LV, ID) was 0, the “innate immune response, GO annotation line 4 of 6” value ([1]; LV, ID) was 0 and the “innate immune response, GO annotation line 5 of 6” value ([1]; LV, ID) was 0. For the same substance, the “innate immune response, GO annotation line 6 of 6” value ([1]; LV, ID) was 0, the “interleukin-6: interleukin-6 production” value ([1]; LV, ID) was 0 and the “interleukin-6: positive regulation of interleukin-6 production” value ([1]; LV, ID) was 0. For the same substance, the “interleukin-6: regulation of interleukin-6 production” value ([1]; LV, ID) was 0, the “interleukin-12: interleukin-12 production” value ([1]; LV, ID) was 0 and the “interleukin-12: positive regulation of interleukin-12 production” value ([1]; LV, ID) was 0. The “interleukin-12: regulation of interleukin-12 production” value ([1]; LV, ID) was 0, the “migration, GO annotation line 1 of 10” value ([1]; LV, ID) was 0 and the “migration, GO annotation line 2 of 10” value ([1]; LV, ID) was 0. For the same substance, the “migration, GO annotation line 3 of 10” value ([1]; LV, ID) was 0, the “migration, GO annotation line 4 of 10” value ([1]; LV, ID) was 0 and the “migration, GO annotation line 5 of 10” value ([1]; LV, ID) was 0. The “migration, GO annotation line 6 of 10” value ([1]; LV, ID) was 0, the “migration, GO annotation line 7 of 10” value ([1]; LV, ID) was 0 and the “migration, GO annotation line 8 of 10” value ([1]; LV, ID) was 0. The “migration, GO annotation line 9 of 10” value ([1]; LV, ID) was 0, the “migration, GO annotation line 10 of 10” value ([1]; LV, ID) was 0 and the “stress, GO annotation line 1 of 3” value ([1]; LV, ID) was 0. For the same substance, the “stress, GO annotation line 2 of 3” value ([1]; LV, ID) was 0, the “stress, GO annotation line 3 of 3” value ([1]; LV, ID) was 0 and the “wounding, GO annotation line 1 of 3” value ([1]; LV, ID) was 0. The “wounding, GO annotation line 2 of 3” value ([1]; LV, ID) was 0, the “wounding, GO annotation line 3 of 3” value ([1]; LV, ID) was 0 and the “systemic organ (LV and SP) responses after i.d. local administration” value ([1]; i.d., fold change >2) was “limited responses in LV and SP”. The “Number of gene probes with statistically significant changes (sDEGs), LV, Down” value ([2]; fold change <0.667, p<0.01, customized PA call=1) was 24 and the “Number of gene probes with statistically significant changes (sDEGs), LV, Up” value ([2]; fold change >1.5, p<0.01, customized PA call=1) was 9.
